Source: ChEMBL document CHEMBL3856212, “Synthesis, anti-proliferative and genotoxicity studies of 6-chloro-5-(2-substituted-ethyl)-1,3-dihydro-2H-indol-2-ones and 6-chloro-5-(2-chloroethyl)-3-(alkyl/ary-2-ylidene)indolin-2-ones” (Eur J Med Chem, 2016)

Legend:
[1] = Cytotoxicity against human CCRF-CEM cells assessed as growth inhibition after 48 hrs by SRB assay; type: functional; details: for CC50: read-out: LD50 (the source's name)
[2] = Cytotoxicity against human SR cells assessed as growth inhibition after 48 hrs by SRB assay; type: functional; details: for CC50: read-out: LD50 (the source's name)
[3] = Cytotoxicity against human A549 cells assessed as growth inhibition after 48 hrs by SRB assay; type: functional; details: A549, 48 h; for CC50: read-out: LD50 (the source's name)
[4] = Cytotoxicity against human HOP62 cells assessed as growth inhibition after 48 hrs by SRB assay; type: functional; details: HOP-62, 48 h; for CC50: read-out: LD50 (the source's name)
[5] = Cytotoxicity against human NCI-H226 cells assessed as growth inhibition after 48 hrs by SRB assay; type: functional; details: NCI-H226, 48 h; for CC50: read-out: LD50 (the source's name)
[6] = Cytotoxicity against human NCI-H460 cells assessed as growth inhibition after 48 hrs by SRB assay; type: functional; details: NCI-H460, 48 h; for CC50: read-out: LD50 (the source's name)
[7] = Cytotoxicity against human NCI-H522 cells assessed as growth inhibition after 48 hrs by SRB assay; type: functional; details: NCI-H522, 48 h; for CC50: read-out: LD50 (the source's name)
[8] = Cytotoxicity against human HCC2998 cells assessed as growth inhibition after 48 hrs by SRB assay; type: functional; details: HCC 2998, 48 h; for CC50: read-out: LD50 (the source's name)
[9] = Cytotoxicity against human HCT116 cells assessed as growth inhibition after 48 hrs by SRB assay; type: functional; details: HCT-116, 48 h; for CC50: read-out: LD50 (the source's name)
[10] = Cytotoxicity against human SNB75 cells assessed as growth inhibition after 48 hrs by SRB assay; type: functional; details: SNB-75, 48 h; for CC50: read-out: LD50 (the source's name)
[11] = Cytotoxicity against human U251 cells assessed as growth inhibition after 48 hrs by SRB assay; type: functional; details: U-251, 48 h; for CC50: read-out: LD50 (the source's name)
[12] = Cytotoxicity against human M14 cells assessed as growth inhibition after 48 hrs by SRB assay; type: functional; details: M14, 48 h; for CC50: read-out: LD50 (the source's name)
[13] = Cytotoxicity against human SK-MEL-28 cells assessed as growth inhibition after 48 hrs by SRB assay; type: functional; details: SK-MEL-28, 48 h; for CC50: read-out: LD50 (the source's name)
[14] = Cytotoxicity against human SK-MEL-5 cells assessed as growth inhibition after 48 hrs by SRB assay; type: functional; details: SK-MEL-5, 48 h; for CC50: read-out: LD50 (the source's name)
[15] = Cytotoxicity against human OVCAR4 cells assessed as growth inhibition after 48 hrs by SRB assay; type: functional; details: OVCAR-4, 48 h; for CC50: read-out: LD50 (the source's name)
[16] = Cytotoxicity against human OVCAR8 cells assessed as growth inhibition after 48 hrs by SRB assay; type: functional; details: OVCAR-8, 48 h; for CC50: read-out: LD50 (the source's name)
[17] = Cytotoxicity against human 786-0 cells assessed as growth inhibition after 48 hrs by SRB assay; type: functional; details: 786-0, 48 h; for CC50: read-out: LD50 (the source's name)
[18] = Cytotoxicity against human SN12C cells assessed as growth inhibition after 48 hrs by SRB assay; type: functional; details: for CC50: read-out: LD50 (the source's name)
[19] = Cytotoxicity against human Hs 578T cells assessed as growth inhibition after 48 hrs by SRB assay; type: functional; details: for CC50: read-out: LD50 (the source's name)
[20] = Cytotoxicity against human MDA-MB-468 cells assessed as growth inhibition after 48 hrs by SRB assay; type: functional; details: MDA-MB-468, 48 h; for CC50: read-out: LD50 (the source's name)
[21] = Cytotoxicity against human NCI-H226 cells assessed as assessed as growth inhibition at 10^-5 M after 48 hrs by SRB assay relative to control; type: functional; details: NCI-H226, 48 h, read-out: GI
[22] = Cytotoxicity against human NCI-H460 cells assessed as assessed as growth inhibition at 10^-5 M after 48 hrs by SRB assay relative to control; type: functional; details: NCI-H460, 48 h, read-out: GI
[23] = Cytotoxicity against human HCT116 cells assessed as assessed as growth inhibition at 10^-5 M after 48 hrs by SRB assay relative to control; type: functional; details: HCT-116, 48 h, read-out: GI
[24] = Cytotoxicity against human HCT15 cells assessed as assessed as growth inhibition at 10^-5 M after 48 hrs by SRB assay relative to control; type: functional; details: HCT-15, 48 h, read-out: GI
[25] = Cytotoxicity against human SF268 cells assessed as assessed as growth inhibition at 10^-5 M after 48 hrs by SRB assay relative to control; type: functional; details: SF-268, 48 h, read-out: GI
[26] = Cytotoxicity against human SNB75 cells assessed as assessed as growth inhibition at 10^-5 M after 48 hrs by SRB assay relative to control; type: functional; details: SNB-75, 48 h, read-out: GI
[27] = Cytotoxicity against human U251 cells assessed as assessed as growth inhibition at 10^-5 M after 48 hrs by SRB assay relative to control; type: functional; details: U-251, 48 h, read-out: GI
[28] = Cytotoxicity against human OVCAR3 cells assessed as assessed as growth inhibition at 10^-5 M after 48 hrs by SRB assay relative to control; type: functional; details: OVCAR-3, 48 h, read-out: GI
[29] = Cytotoxicity against human A498 cells assessed as assessed as growth inhibition at 10^-5 M after 48 hrs by SRB assay relative to control; type: functional; details: A498, 48 h, read-out: GI
[30] = Cytotoxicity against human RXF393 cells assessed as assessed as growth inhibition at 10^-5 M after 48 hrs by SRB assay relative to control; type: functional; details: RXF 393, 48 h, read-out: GI
[31] = Cytotoxicity against human PC3 cells assessed as assessed as growth inhibition at 10^-5 M after 48 hrs by SRB assay relative to control; type: functional; details: PC-3, 48 h, read-out: GI
Mus musculus [32] = species: Mus musculus; assay: Genotoxicity in mouse EAC cells at 250 uM after 24 hrs by micronucleus assay (reference value: 3.5 +/- 0.30%); type: toxicity, cell-based; details: ehrlich
Mus musculus [33] = species: Mus musculus; assay: Genotoxicity in mouse EAC cells at 500 uM after 24 hrs by micronucleus assay (reference value: 3.5 +/- 0.30%); type: toxicity, cell-based; details: ehrlich
[34] = Induction of apoptosis in mouse EAC cells at 125 uM after 24 hrs by acridine orange dye-based fluorescence microscopy (reference value: 0.66 +/- 0.33%); type: cell-based; details: ehrlich

Work on O=C1Cc2cc(CCn3ccnc3)c(Cl)cc2N1 yielded a GI50 [1] of 3.37 µM, a TGI [1] of over 1 µM and a CC50 [1] of over 1 µM. For the same compound, the GI50 [2] was 9.24 µM, the TGI [2] was over 1 µM and the CC50 [2] was over 1 µM. The GI50 [3] was 7.63 µM, the TGI [3] was over 1 µM and the CC50 [3] was over 1 µM. The GI50 [4] was 3.32 µM, the TGI [4] was over 1 µM and the CC50 [4] was over 1 µM. For the same compound, the GI50 [5] was 1 µM, the TGI [5] was over 1 µM and the CC50 [5] was over 1 µM. For the same compound, the GI50 [6] was 1.61 µM, the TGI [6] was over 1 µM and the CC50 [6] was over 1 µM. The GI50 [7] was 4.74 µM, the TGI [7] was 4.79 µM and the CC50 [7] was over 1 µM. The GI50 [8] was 3.22 µM, the TGI [8] was over 1 µM and the CC50 [8] was over 1 µM. It also gave a GI50 [9] of 1.31 µM, a TGI [9] of over 1 µM and a CC50 [9] of over 1 µM. It also gave a GI50 [10] of 2.16 µM, a TGI [10] of over 1 µM and a CC50 [10] of over 1 µM. The GI50 [11] was 8.24 µM, the TGI [11] was over 1 µM and the CC50 [11] was over 1 µM. For the same compound, the GI50 [12] was 3.46 µM, the TGI [12] was 3.98 µM and the CC50 [12] was over 1 µM. It also gave a GI50 [13] of 2.97 µM, a TGI [13] of over 1 µM and a CC50 [13] of over 1 µM. The GI50 [14] was 8.12 µM, the TGI [14] was over 1 µM and the CC50 [14] was over 1 µM. For the same compound, the GI50 [15] was 4.5 µM, the TGI [15] was over 1 µM and the CC50 [15] was over 1 µM. The GI50 [16] was 2.41 µM, the TGI [16] was over 1 µM and the CC50 [16] was over 1 µM. For the same compound, the GI50 [17] was 1 µM, the TGI [17] was over 1 µM and the CC50 [17] was over 1 µM. The GI50 [18] was 1.65 µM, the TGI [18] was over 1 µM and the CC50 [18] was over 1 µM. For the same compound, the GI50 [19] was 8.73 µM, the TGI [19] was 9.92 µM and the CC50 [19] was over 1 µM. For the same compound, the GI50 [20] was 2.74 µM, the TGI [20] was over 1 µM and the CC50 [20] was over 1 µM. The inhibition of growth at 10 µM [21] was 10.7%, the inhibition of growth at 10 µM [22] was 52.6% and the inhibition of growth at 10 µM [23] was 28%. It also gave an inhibition of growth at 10 µM [24] of 32.8%, an inhibition of growth at 10 µM [25] of 27.6% and an inhibition of growth at 10 µM [26] of 31.7%. The inhibition of growth at 10 µM [27] was 32.7%, the inhibition of growth at 10 µM [28] was 36.5% and the inhibition of growth at 10 µM [29] was 32.2%. It also gave an inhibition of growth at 10 µM [30] of 42%, an inhibition of growth at 10 µM [31] of 11.7% and an Activity (Mus musculus [32]) of 2.83%. It also gave an Activity (Mus musculus [33]) of 4.83% and an Activity [34] of 0.33%.
With O=C1Cc2cc(CCN3CCNCC3)c(Cl)cc2N1 the GI50 [1] was 2.98 µM, the TGI [1] was over 1 µM and the CC50 [1] was over 1 µM. The GI50 [2] was 6.2 µM, the TGI [2] was over 1 µM and the CC50 [2] was over 1 µM. The GI50 [3] was 6.85 µM, the TGI [3] was over 1 µM and the CC50 [3] was over 1 µM. It also gave a GI50 [4] of 1.93 µM, a TGI [4] of over 1 µM and a CC50 [4] of over 1 µM. For the same compound, the GI50 [5] was 1 µM, the TGI [5] was over 1 µM and the CC50 [5] was over 1 µM. It also gave a GI50 [6] of 2.29 µM, a TGI [6] of over 1 µM and a CC50 [6] of over 1 µM. It also gave a GI50 [7] of 4.88 µM, a TGI [7] of over 1 µM and a CC50 [7] of over 1 µM. For the same compound, the GI50 [8] was 4.66 µM, the TGI [8] was over 1 µM and the CC50 [8] was over 1 µM. It also gave a GI50 [9] of 1 µM, a TGI [9] of over 1 µM and a CC50 [9] of over 1 µM. It also gave a GI50 [10] of 1.56 µM, a TGI [10] of 7.54 µM and a CC50 [10] of over 1 µM. For the same compound, the GI50 [11] was 7.79 µM, the TGI [11] was over 1 µM and the CC50 [11] was over 1 µM. The GI50 [12] was 3.02 µM, the TGI [12] was 2.65 µM and the CC50 [12] was over 1 µM. For the same compound, the GI50 [13] was 3.7 µM, the TGI [13] was over 1 µM and the CC50 [13] was over 1 µM. It also gave a GI50 [14] of 5.33 µM, a TGI [14] of over 1 µM and a CC50 [14] of over 1 µM. The GI50 [15] was 8.78 µM, the TGI [15] was over 1 µM and the CC50 [15] was over 1 µM. It also gave a GI50 [16] of 3.68 µM, a TGI [16] of over 1 µM and a CC50 [16] of over 1 µM. It also gave a GI50 [17] of 1 µM, a TGI [17] of over 1 µM and a CC50 [17] of over 1 µM. For the same compound, the GI50 [18] was 6 µM, the TGI [18] was over 1 µM and the CC50 [18] was over 1 µM. It also gave a GI50 [19] of 1.57 µM, a TGI [19] of over 1 µM and a CC50 [19] of over 1 µM. The GI50 [20] was 2.24 µM, the TGI [20] was 7.42 µM and the CC50 [20] was over 1 µM. For the same compound, the inhibition of growth at 10 µM [21] was 19.4%, the inhibition of growth at 10 µM [22] was 25.7% and the inhibition of growth at 10 µM [23] was 34.8%. For the same compound, the inhibition of growth at 10 µM [24] was 51.2%, the inhibition of growth at 10 µM [25] was 27.9% and the inhibition of growth at 10 µM [26] was 38.6%. It also gave an inhibition of growth at 10 µM [27] of 43%, an inhibition of growth at 10 µM [28] of 17.2% and an inhibition of growth at 10 µM [29] of 33.9%. It also gave an inhibition of growth at 10 µM [30] of 60.1%, an inhibition of growth at 10 µM [31] of 16.5% and an Activity (Mus musculus [32]) of 4.43%. It also gave an Activity (Mus musculus [33]) of 6.26% and an Activity [34] of 1%.
